Assay results reported in US20220073541A1, “SILICON ION COMPLEX ORGANIZED WITH CARBOXYLIC ACID, METHOD FOR MANUFACTURING COMPLEX, AND PRODUCT USING SAME” (KOREA NEW TECHNOLOGY CO.,LTD., priority 2019, published 2022).

Assay: Metasilicate dissolution experiment (gastric acid conditions, pH 1.5)
Assay type: physicochemical
Method: A dissolution experiment was performed using sodium metasilicate nonahydrate (Na2SiO3.9H2O).
(2) The pH of the solution was lowered to pH 1.5 using 37% hydrochloric acid and measured again.
(1) 150 ml of water was added in a 250 ml beaker, adjusted in pH to a value of 1.5 with 37% hydrochloric acid to meet the standards for gastric acid of the human body, and combined with another water to a volume of 250 ml.
(2) 1 g of metasilicate nonahydrate (Na2SiO3.9H2O) was added to the solution of step (1).

Row | pH of solution in pure water (1 g in 500 ml pure water) | behaviour of dissolved silicate after lowering pH (1 g in 500 ml pure water, pH lowered to 1.5 using 37% hydrochloric acid) | dissolution of silicate added to acidic water (1 g added to 250 ml water at pH 1.5 (37% hydrochloric acid)) | Structure (SMILES)
1 | 12.23 | gelled while agglomerating |  | O.O.O.O.O.O.O.O.O.O=[Si]([O-])[O-].[Na+].[Na+] [Comparative Example 1, sodium metasilicate nonahydrate (Na2SiO3.9H2O)]
2 |  |  | precipitated rather than dissolved | O.O.O.O.O.O.O.O.O.O=[Si]([O-])[O-].[Na+].[Na+] [Comparative Example 2, metasilicate nonahydrate (Na2SiO3.9H2O)]
